Among the data in ChEMBL document CHEMBL1130766, “Phosphodiesterase inhibitory properties of losartan. Design and synthesis of new lead compounds” (Bioorg Med Chem Lett, 1998) are inhibition and IC50 values, retold here.

Assay [1] concerns the target T1, Phosphodiesterase 3 (Homo sapiens, UniProt Q14432+Q13370). The assay can be described thus: Inhibition of guinea pig ventricular Phosphodiesterase 3 (PDE 3) at 200 uM. The class given is protein assay. Conditions: Cavia porcellus, target entry is the homologue from another species.
The target in assay [2] is T2, Phosphodiesterase 4 (Homo sapiens, UniProt P27815+Q08499+Q07343+Q08493). The assay is described as follows: Inhibition of guinea pig ventricular Phosphodiesterase 4 (PDE 4) at 200 uM. Conditions: Cavia porcellus, target entry is the homologue from another species. The assay is classed as protein assay.
The target of assay [3] is T1, Phosphodiesterase 3. The assay is described as follows: Inhibitory effect in cGMP-inhibited Phosphodiesterase 3 (PDE 3) isolated from guinea pig ventricular tissue. The class given is protein assay, Cavia porcellus. The settings on record: target entry is the homologue from another species.
The target in assay [4] is T2, Phosphodiesterase 4. The assay is described as follows: Inhibitory effect in cAMP-specific Phosphodiesterase 4 (PDE 4) isolated from guinea pig ventricular tissue. The assay is classed as protein assay, Cavia porcellus. Conditions: target entry is the homologue from another species.
Assay [5] concerns the target T1, Phosphodiesterase 3. The assay is described as follows: Inhibition of guinea pig ventricular Phosphodiesterase 3 (PDE 3). The assay is classed as protein assay, Cavia porcellus. The settings on record: target entry is the homologue from another species.

`CCCCN(Cc1ccc(-c2ccccc2-n2ncnn2)cc1)c1nc2nc3ccccc3n2s1`: the inhibition in assay [1] stood at 50%; in assay [2] it was 48%. For `CCCc1nc(SCc2ccc(-c3ccccc3-c3nn[nH]n3)cc2)c2cc(C)cc(C)c2n1`, the IC50 in assay [3] was 11 µM; in assay [4], 8.6 µM. For `CCCCN(Cc1ccccc1)c1nc2nc3ccccc3n2s1`, the inhibition in assay [1] worked out at 0%. The IC50 in assay [4] came to 90 µM. Regarding `CCc1nc(OCc2ccc(-c3ccccc3-c3nn[nH]n3)cc2)c2ccccc2n1`, the IC50 in assay [3] amounted to 5.8 µM; in assay [4] it was 14 µM. For the compound `CC(C)c1nc(SCc2ccc(-c3ccccc3-c3nn[nH]n3)cc2)c2ccccc2n1`, the IC50 in assay [3] was 2.4 µM; in assay [4], 3.8 µM. The like results for `CCc1nc(SCc2ccc(-c3ccccc3-c3nn[nH]n3)cc2)c2ccccc2n1` were, in that order, 7 µM and 3.3 µM. The corresponding values for `CCCCc1nc(NCc2ccc(-c3ccccc3-c3nn[nH]n3)cc2)c2ccccc2n1` are 16 µM and 7.6 µM.

Consider `CCCCN(Cc1ccccc1-n1ncnn1)c1nc2nc3ccccc3n2s1`, for which the inhibition amounted to 32% in assay [1] and 44% in assay [2]. For `CCCc1nc(SCc2ccc(-c3ccccc3-c3nn[nH]n3)cc2)c2cc(C)ccc2n1`, the IC50 was 2.4 µM in assay [3] and 3.8 µM in assay [4].

Consider `CCCCc1nc(SCc2ccc(-c3ccccc3-c3nn[nH]n3)cc2)c2ccccc2n1`, for which the results for the IC50 in assay [3] and in assay [4] were 8 µM and 2.9 µM, respectively. The like results for `Cc1nc(SCc2ccc(-c3ccccc3-c3nn[nH]n3)cc2)c2ccccc2n1` were, in that order, 4.8 µM and 15 µM. Regarding `CCCCN(Cc1ccccc1-c1ccccc1)c1nc2c3c(ccc2s1)CCCC3`, the inhibition in assay [1] is 15%. In assay [4], this compound yielded an IC50 of 42 µM. As for `CCCCc1nc(OCc2ccc(-c3ccccc3-c3nn[nH]n3)cc2)c2ccccc2n1`, the IC50 in assay [3] was found to be 5.4 µM; in assay [4] it was 7.9 µM.

As to `CCN(Cc1ccccc1-c1ccccc1)c1nc2nc3ccccc3n2s1`, the inhibition in assay [1] is 41%. The IC50 in assay [4] is 48 µM. On to `CCN(Cc1ccc(-c2ccccc2-n2ncnn2)cc1)c1nc2nc3ccccc3n2s1`, for which the IC50 was 125 µM in assay [5] and 74 µM in assay [4].

With `CCCCN(Cc1ccccc1-c1ccccc1)c1nc2nc3ccccc3n2s1`, the inhibition in assay [1] turned out to be 31%. The compound also registered an IC50 in assay [4] of 30 µM. Consider `CCCc1nc(SCc2ccc(-c3ccccc3-c3nn[nH]n3)cc2)c2ccccc2n1`, for which the IC50 is 6.8 µM in assay [3] and 3.8 µM in assay [4]. In turn, `CCN(Cc1ccccc1-n1ncnn1)c1nc2nc3ccccc3n2s1` had an inhibition in assay [1] of 15%. The same compound gave an IC50 in assay [4] of 107 µM.

`CCCCc1nc(Cl)c(CO)n1Cc1ccc(-c2ccccc2-c2nnn[nH]2)cc1` [LOSARTAN]: in assay [5], the IC50 was determined as 13 µM.

As for `CCc1nc(NCc2ccc(-c3ccccc3-c3nn[nH]n3)cc2)c2ccccc2n1`, the IC50 in assay [3] came out at 24 µM; in assay [4], 21 µM. Compound `CCN(Cc1ccccc1)c1nc2nc3ccccc3n2s1` had an inhibition in assay [1] of 12%. The compound also had a half-inhibitory concentration (IC50) in assay [4] of 32 µM.
